Data reported in US4649200A, “Substituted pyrroles with opioid receptor activity” (Regents of the University of Minnesota, priority 1986, dated 1987).
“Also recorded” adds a separate entry of the source.

How the values were obtained:
[1] = target: T1, delta opioid receptor (Mus musculus, UniProt P32300); test: Antagonism of DADLE (selective delta agonist) on the MVD, IC50 ratio; format: cell-based; conditions: IC50 of agonist in presence of antagonist / control IC50
T1 construct: Both vasa deferentia were dissected out of mice; from tissue; host or cells: mouse vas deferens
T1 sequence (P32300 whole entry): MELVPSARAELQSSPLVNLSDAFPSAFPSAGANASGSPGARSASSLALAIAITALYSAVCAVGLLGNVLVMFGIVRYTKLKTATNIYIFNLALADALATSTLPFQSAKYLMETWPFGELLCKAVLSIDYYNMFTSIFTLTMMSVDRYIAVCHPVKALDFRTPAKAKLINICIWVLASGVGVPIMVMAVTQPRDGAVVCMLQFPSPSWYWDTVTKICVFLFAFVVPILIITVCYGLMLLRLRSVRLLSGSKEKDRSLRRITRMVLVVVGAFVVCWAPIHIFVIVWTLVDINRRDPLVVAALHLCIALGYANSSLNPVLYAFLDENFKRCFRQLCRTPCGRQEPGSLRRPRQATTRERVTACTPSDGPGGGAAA
Method: (§1) This assay was performed according to the description by Henderson et al., Brit. J. Pharmacol., 46, 764 (1972), the disclosure of which is incorporated by reference herein. Both vasa deferentia were dissected out of mice and mounted singly through two platinum ring electrodes in a 10 ml organ bath. The bath contained Krebs bicarbonate solution that was continuously bubbled with 95% O2 and 5% CO2. The organ bath was maintained at 37° C. The tissue was attached to an isometric transducer and stimulated transmurally with rectangular pulses ([…], 1 ms duration, supramaximal voltage). Drugs were added cumulatively to the bath in 10 to 50 ul amounts and washed out after noting their maximum effect.

[2] = tested on: guinea pig ileal longitudinal muscle (GPI); test: Agonism on electrically stimulated guinea pig ileal longitudinal muscle (GPI); format: cell-based
Method: (§2) Ilea from guinea pigs were taken approximately 10 cm from the ileocaecal junction, and a strip of longitudinal muscle with the myenteric plexus attached was prepared by method of Rang et al., Brit. J. Phamacol., 22, 356 (1964), the disclosure of which is incorporated by reference herein. A 1 cm portion of this strip was then mounted between two platinum electrodes placed in a 10 ml organ bath and connected to an isometric transducer; contractions were recorded on a polygraph. Contractions of the ileal strip were initiated by supramaximal rectangular pulses in all preparations (80 V of 0.5 ms duration at a frequency of 0.1 Hz). Krebs bicarbonate solution containing 1.25 uM chlorpheniramine maleate was the bathing solution and was continuously bubbled with 95% O2 and 5% CO2. The organ bath was maintained at 36°-37° C. The longitudinal muscle strip was allowed to equilibrate with continuous stimulation for a minimun of 90 min. Cumulative concentration-response curves were determined after drugs were added to the bath in 10- to 50-uL amounts and washed out with two 10 ml portions of buffer after noting their maximum effects.
(§3) Compounds IIIa-IIIh and TENA were tested on the electrically-stimulated guniea pig ileal longitudinal muscle (GPI) and, where appropriate, the mouse vas deferens preparation (MVD).
(§4) ^a For ligands that are partial or pure antagonists, the highest
(§5) concentration and maximal response is given. Potencies of pure agonists
(IIIeh) are relative to morphine = 1.

[3] = target: T2, kappa opioid receptor (Cavia porcellus, UniProt P41144); test: Antagonism of ethylketazocine (EK, kappa agonist) on the GPI, IC50 ratio; format: cell-based, guinea pig
T2 construct: a strip of longitudinal muscle with the myenteric plexus attached was prepared; from tissue; host or cells: guinea pig ileal longitudinal muscle strip with myenteric plexus
T2 sequence (P41144 whole entry): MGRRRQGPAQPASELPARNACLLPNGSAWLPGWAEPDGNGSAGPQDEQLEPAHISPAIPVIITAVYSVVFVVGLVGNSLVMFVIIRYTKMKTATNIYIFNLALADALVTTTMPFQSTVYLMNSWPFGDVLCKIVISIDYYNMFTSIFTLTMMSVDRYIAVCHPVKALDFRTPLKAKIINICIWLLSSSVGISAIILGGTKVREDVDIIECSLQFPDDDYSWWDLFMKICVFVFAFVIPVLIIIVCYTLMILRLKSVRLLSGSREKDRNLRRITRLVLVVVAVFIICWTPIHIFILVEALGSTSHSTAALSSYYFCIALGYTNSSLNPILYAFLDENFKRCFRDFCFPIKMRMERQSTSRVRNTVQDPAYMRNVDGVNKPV
Method: as §2

[4] = tested on: kappa receptor; conditions: cited from earlier work
[5] = target: T3, mu receptor (Cavia porcellus, UniProt A0ACM8Q262); test: Antagonism of morphine sulfate (mu agonist) on the GPI, IC50 ratio; format: cell-based, guinea pig
T3 construct: antagonism of morphine
T3 sequence (A0ACM8Q262 1-400): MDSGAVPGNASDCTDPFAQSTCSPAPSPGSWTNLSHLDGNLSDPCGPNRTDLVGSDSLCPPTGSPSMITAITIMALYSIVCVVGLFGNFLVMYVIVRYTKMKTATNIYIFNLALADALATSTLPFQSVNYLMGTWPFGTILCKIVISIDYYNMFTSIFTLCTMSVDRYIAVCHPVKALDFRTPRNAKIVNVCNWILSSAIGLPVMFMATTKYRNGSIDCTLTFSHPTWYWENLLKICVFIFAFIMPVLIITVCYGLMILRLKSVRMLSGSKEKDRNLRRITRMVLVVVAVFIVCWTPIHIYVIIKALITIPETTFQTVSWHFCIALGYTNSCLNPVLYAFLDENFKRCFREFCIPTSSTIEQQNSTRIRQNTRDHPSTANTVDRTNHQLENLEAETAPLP
Method: as §2

[6] = tested on: mouse vas deferens (MVD); test: Agonism on the mouse vas deferens preparation (MVD); format: cell-based; conditions: for Emax at 1 µM: Mus musculus, read-out: MVD Agonism (maximal response at highest concentration)
Method: as §1, §3, §4, §5

[7] = target: T2, kappa opioid receptor; test: Antagonism of U50488H (selective kappa agonist) on the GPI, IC50 ratio; format: cell-based, guinea pig; conditions: for GPI IC50 Ratio, U50488H: IC50 of agonist in presence of antagonist / control IC50
Method: as §2

[8] = tested on: mu receptors; conditions: cited from earlier work
[9] = target: T4, kappa receptors (Mus musculus, UniProt P33534); test: Mouse writhing procedure, antagonism of agonist; format: in vivo; conditions: antagonist ICV
T4 construct: tested in vivo using the mouse writhing procedure; from tissue
T4 sequence (P33534 whole entry): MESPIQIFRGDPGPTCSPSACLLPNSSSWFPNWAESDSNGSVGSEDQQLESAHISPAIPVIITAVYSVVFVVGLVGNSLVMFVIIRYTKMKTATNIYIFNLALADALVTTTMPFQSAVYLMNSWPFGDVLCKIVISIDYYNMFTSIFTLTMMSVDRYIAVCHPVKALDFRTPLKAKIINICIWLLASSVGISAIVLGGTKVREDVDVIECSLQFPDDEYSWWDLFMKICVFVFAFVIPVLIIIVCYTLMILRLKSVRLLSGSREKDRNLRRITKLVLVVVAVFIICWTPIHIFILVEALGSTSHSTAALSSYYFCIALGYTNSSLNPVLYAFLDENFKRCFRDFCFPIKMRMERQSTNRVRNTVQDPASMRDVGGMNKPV
Method: (§6) Mice were treated with 50 nmol of the agonist (morphine, EK, or U50488H) subcutaneously and the antagonist was administered intracerebroventricularly (ICV).

[10] = Mouse writhing procedure, antagonism of agonist; format: in vivo; conditions: morphine 50 nmol s.c.; antagonist ICV
Method: as §6

[11] = tested on: kappa-opioid receptors; test: Kappa-opioid antagonist selectivity (comparison of IC50 ratios, GPI and MVD); format: cell-based, guinea pig
Method: as §2
This assay was performed according to the description by Henderson et al., Brit. J. Pharmacol., 46, 764 (1972), the disclosure of which is incorporated by reference herein. […]

[12] = antagonist 20 nM, IC50 of agonist in presence of antagonist / control IC50
[13] = Cavia porcellus, read-out: GPI Agonism (maximal response at highest concentration)
[14] = antagonist 2 nM, IC50 of agonist in presence of antagonist / control IC50

Compound	MVD IC50 Ratio, DADLE ([1]; antagonist 20 nM)	GPI IC50 Ratio, Ethylketazocine [3, 12]	GPI IC50 Ratio, Morphine Sulfate [5, 12]	GPI Agonism, potency of pure agonists relative to morphine = 1 [2]	Emax at 1 µM [2, 13] [%]	Emax at 1 µM [6] [%]	other results
Oc1ccc2c3c1O[C@H]1[C@H](NCCOCCOCCN[C@@H]4CC[C@@]5(O)[C@H]6Cc7ccc(O)c8c7[C@@]5(CCN6CC5CC5)[C@H]4O8)CC[C@@]4(O)[C@@H](C2)N(CC2CC2)CC[C@]314 [TENA, reference compound]	1.2	19.6 ± 2.40	4.20 ± 1.20				Emax at 0.01 µM ([2]; Cavia porcellus, @ 10 nM, read-out: GPI Agonism (maximal response at highest concentration)): 10%; times more effective in antagonizing U50488H relative to morphine ([4]; U50488H vs morphine): about 27 times; times more effective against ethylketazocine relative to morphine ([4]; ethylketazocine vs morphine): about five
CN1CC[C@]23c4c5ccc(O)c4O[C@H]2c2[nH]c4c(c2C[C@H]3[C@H]1C5)C[C@H]1[C@H]2Cc3ccc(O)c5c3[C@@]1(CCN2C)[C@H]4O5 [IIIf]				3.1 ± 0.4			GPI IC50 Ratio, Ethylketazocine ([3]; compound 10 nM): 0.5 ± 0.04; GPI IC50 Ratio, Morphine Sulfate ([5]; compound 10 nM): 0.3 ± 0.1
COc1ccc2c3c1O[C@H]1c4[nH]c5c(c4C[C@H]4[C@@H](C2)N(C)CC[C@]314)C[C@H]1[C@H]2Cc3ccc(OC)c4c3[C@@]1(CCN2C)[C@H]5O4 [IIIg]				0.2 ± 0.04			GPI IC50 Ratio, Ethylketazocine ([3]; compound 100 nM): 0.4 ± 0.07; GPI IC50 Ratio, Morphine Sulfate ([5]; compound 100 nM): 0.5 ± 0.07
COc1ccc2c3c1O[C@H]1c4[nH]c5c(c4C[C@@]4(O)[C@@H](C2)N(CC2CC2)CC[C@]314)C[C@@]1(O)[C@H]2Cc3ccc(OC)c4c3[C@@]1(CCN2CC1CC1)[C@H]5O4 [IIIe]	0.6 ± 0.1	4 (2)	0.8 (2)		0	39	
CC(=O)Oc1ccc2c3c1O[C@H]1c4[nH]c5c(c4C[C@@]4(O)[C@@H](C2)N(CC2CC2)CC[C@]314)C[C@@]1(O)[C@H]2Cc3ccc(OC(C)=O)c4c3[C@@]1(CCN2CC1CC1)[C@H]5O4 [IIId]	3.5 ± 1.3	697 (2)	8.0 (2)		32	32	
Oc1ccc2c3c1O[C@H]1c4[nH]c5c(c4C[C@@]4(O)[C@@H](C2)N(CC2CC2)CC[C@]314)C[C@@]1(O)[C@H]2Cc3ccc(O)c4c3[C@@]1(CCN2CC1CC1)[C@H]5O4 [IIIa]	2.0 ± 0.1	49.7 ± 15.6	4.7 ± 0.8			16	Emax at 0.2 µM ([2]; Cavia porcellus, @ 200 nM, read-out: GPI Agonism (maximal response at highest concentration)): 14%; GPI IC50 Ratio, Ethylketazocine [3, 14]: 8.8 ± 0.13; antagonism of U50488H in GPI, IC50 ratio values compared with EK [7]: higher IC50 ratio values were observed; GPI IC50 Ratio, U50488H ([7]; antagonist 2 nM): 11.0 ± 1.1; GPI IC50 Ratio, U50488H ([7]; antagonist 20 nM): 178 ± 18; GPI IC50 Ratio, Morphine Sulfate [5, 14]: 0.92 ± 0.16
O=C1CC[C@@]2(O)[C@H]3Cc4ccc(O)c5c4[C@@]2(CCN3CC2CC2)[C@H]1O5 [naltrexone]							potency at mu receptors compared with kappa [8]: much greater potency at mu receptors
CCn1c2c(c3c1[C@@H]1Oc4c(O)ccc5c4[C@@]14CCN(CC1CC1)[C@H](C5)[C@]4(O)C3)C[C@@]1(O)[C@H]3Cc4ccc(O)c5c4[C@@]1(CCN3CC1CC1)[C@H]2O5 [IIIc]	4.2 ± 1.1	147 ± 20	2.2 ± 0.7		0	41	MVD IC50 Ratio, DADLE ([1]; antagonist 2 nM): 1.8 ± 0.3
CN1CC[C@]23c4c5ccc(O)c4O[C@H]2c2[nH]c4c(c2C[C@@]3(O)[C@H]1C5)C[C@@]1(O)[C@H]2Cc3ccc(O)c5c3[C@@]1(CCN2C)[C@H]4O5 [IIIh]				0.23 ± 0.05			GPI IC50 Ratio, Ethylketazocine ([3]; compound 50 nM): 0.4 ± 0.05; GPI IC50 Ratio, Morphine Sulfate ([5]; compound 50 nM): 0.9 ± 0.2
Cn1c2c(c3c1[C@@H]1Oc4c(O)ccc5c4[C@@]14CCN(CC1CC1)[C@H](C5)[C@]4(O)C3)C[C@@]1(O)[C@H]3Cc4ccc(O)c5c4[C@@]1(CCN3CC1CC1)[C@H]2O5 [IIIb]	4.5 ± 0.7	165 ± 30	1.2 ± 0.3		0	42	ED50 ratio [(agonist+IIIb)/agonist control], EK ([9]; EK 50 nmol s.c.): 3.85; ED50 ratio [(agonist+IIIb)/agonist control], U50488H ([9]; U50488H 50 nmol s.c.): 15.71; ED50 ratio [(agonist+IIIb)/agonist control], morphine [10]: 0.85; agonist activity in GPI [2]: no agonist effect; kappa-opioid antagonist selectivity [11]: possesses the greatest kappa selectivity; also recorded: "pure" kappa-opioid receptor antagonist; agonist activity in MVD [6]: no agonist effect; antagonism of morphine in GPI ([5]; 20 nM): no significant antagonism of morphine was observed at 20 nM
